Laboratory results published in patent US20260166113A1, “COMPOSITIONS AND METHODS FOR TREATING RENAL CANCER” (The Regents of the University of Michigan, priority 2022, published 2026).
Entries after “also recorded” stand apart in the source; their conditions may differ. Each block holds one compound with its values, some of them ahead of it.

Experiments:
[1] = system: 5 RCC cell lines (786-0, 769-P, A-498, Caki-1, Caki-2); assay: Kinase inhibition, DIA-MS phosphoproteome of treated RCC cell lines; format: cell-based; details: treated at calculated IC50 for 1.5 hours; for phosphorylation of signaling-related downstream substrates: DIA-MS
Method: For in vitro experiments assessing the impact of select kinase inhibition on renal cancer cell models (786-0, 769-P, A-498, Caki-1, and Caki-2), the kinase inhibitors, Adaversotib, Everolimus, Sapanisterib, Gefitinib, and Trametinib were dissolved in dimethyl sulfoxide (DMSO) and subjected to sonication in a water bath at room temperature. Following an assessment of individual cell line growth rates to enable calculation of half maximal inhibitory concentration (IC50), cells were seeded in triplicate at concentrations of either 1,000 cells/well (786-0, 769-P, A-498, Caki-2) or 10,000 cells/well (Caki-1). Post-24 hour seeding, cells were subjected to kinase inhibitors at final concentrations of 1 nm, 10 nM, 50 nM, 100 nM, 500 nM, […], with non-treated cells and DMSO treated cells included as controls. Cell growth was measured on day 1 (kinase inhibitor treatment), day 4, and day 6 using the colorimetric CellTiter 96® Aqueous One Cell Proliferation Solution Assay (MTS) following the manufacturer's instructions. IC50 for each cell line in response to single kinase inhibitor exposure was determined by plotting inhibitor concentration against percent activity relative to DMSO-treated controls and calculating the x-intercept of the linear logarithmic trend line. For phosphoproteomic characterization of renal cell models treated with individual kinase inhibitors, six treatment conditions were devised—control, Adaversotib treatment, Everolimus treatment, Sapanisterib treatment, Gefitinib treatment, and Trametinib treatment—and cells were seeded at ˜5E6 cells/15 cm plate and allowed to reach ˜80% confluency. 30 minutes prior to kinase inhibitor treatment, fresh media was exchanged. Cells were then treated with kinase inhibitors at calculated IC50 values for 1.5 hours. Media was removed and cells were three times with a volume of ice-cold PBS. Cells were scraped using 1.5 mL of ice-cold PBS, transferred to Eppendorf tubes, and spun at 3,000×g for 5 minutes at 4° C. A volume of lysis buffer (8 M urea, 75 mM NaCl, 50 mM Tris, pH 8.0, 1 mM EDTA, […] aprotinin, […] leupeptin, 1 mM PMSF, 10 mM NaF, Phosphatase Inhibitor Cocktail 2 and Phosphatase Inhibitor Cocktail 3 [1:100 dilution], and 20 mM PUGNAc) was added and cells lysed. Subsequent sample preparation and ESI-LC-MS/MS analysis for global proteomic and phosphoproteomic characterization for DIA analysis were performed as described for tissue samples.
Analysis of the DIA data from the kinase inhibitor study (whole proteome and phosphopeptide enriched data) was performed as described above. For each data type, the libraries were built from the corresponding 30 DIA runs (6 treatments x 5 cell lines) supplemented with 8 or 9 fractionated DDA files for whole proteome and phosphopeptide-enriched samples, respectively. The resulting whole proteome spectral library contained 8882 proteins and 173932 precursors; the phosphopeptide enriched sample library contained 7841 proteins and 101491 precursors (including non-phosphorylated proteins and peptides). After DIA-NN quantification, the final quantification table for the phosphopeptide-enriched dataset contained quantification information for 46577 phosphorylated peptides forms, representing 22161 peptide sequences from 5154 proteins. The whole proteome dataset table contained quantification for 7654 genes.

metastatic RCC = details: everolimus versus sunitinib; literature ref 85; cited from earlier work
[2] = system: metastatic papillary RCC cell line ACHN1; assay: Cell viability by CellTiter-Glo assay; format: cell-based; details: 120 hrs incubation; for effect on cell viability: FIG. 23D
Method: (§1) The cell viability was determined by CellTiter-Glo assays (Promega). Cells were seeded in 96-well plates (3000 cells per well) in respective culture medium. After 24 hrs incubation, a serial dilution of compounds was added into plates with six replications for each dose. After 120 hrs incubation, the CellTiter-Glo assays were performed based on the manufacturer's instruction to analyze cell proliferation rates. The bioluminescence signal was acquired by the Infinite M1000 Pro plate reader (Tecan). The data were analyzed by GraphPad Prism software (GraphPad Software).

[3] = system: neuroblastoma cell line NB1 (NB-1); assay: Cell viability by CellTiter-Glo assay; format: cell-based
Method: as §1

786-O renal cancer cells [4] = assay: Cell morphology by IncuCyte ZOOM assay; format: cell-based; details: 30 μM, 24 hr, FIG. 18K
Method: (§2) 786-O cells were maintained in Gibco RPMI-1640 supplemented with 10% FBS. CAS 668467-91-2 (UCHL-1 inhibitor) was purchased from Sigma-Aldrich (L4170) and its impact on cell viability was evaluated. Briefly, 2000 cells were seeded on white flat bottom 96 well plates and were treated with increasing concentrations of the inhibitor for a week. CellTiter-Glo Luminescent Cell Viability Assay (Promega) was used to assess cell viability and IC-50 was calculated using a graph pad. Impact of UCHL-1 inhibitor on cell morphology was evaluated using IncuCyte ZOOM assay. For western blot analysis, cell lysates were harvested from control and UCHL-1 treated 786-O cells. Following protein quantification, lysates were resolved in NuPAGE Bis-Tris Protein Gel (ThermoFisher Scientific), transferred on to nitrocellulose membranes, blocked with 5% milk, and incubated overnight with UCHL-1 antibody (HPA005993, Sigma-Aldrich). Following day, membranes were washed with TBST buffer, incubated with HRP-conjugated secondary antibodies, washed, and imaged using Odyssey Fc imager (LiCOR Biosciences).

786-O renal cancer cells [5] = assay: CellTiter-Glo Luminescent Cell Viability Assay; format: cell-based; details: increasing concentrations for a week, FIG. 18J
Method: as §2

ccRCC cell line Caki-1 = assay: In vitro drug treatment and growth inhibition assessment (AlamarBlue cell viability); format: cell-based; details: 1, 5, 25 μM, treatment 7 days, FIG. 18J
Method: (§3) The ccRCC cell line Caki-1 and a control cell line HK-2 were maintained in Dulbecco's Modified Eagle Medium/Nutrient Mixture F-12 (DMEM/F-12) culture medium (Gibco-11320033) supplemented with 10% FBS (Sigma, F-9665) and 1% Pen Strep (Gibco, 10,000 U/mL-15140122). All cell lines were seeded at 50,000 cells/well in duplicates in 24-well plates at day 0 and were treated with either UCHL1 inhibitor (CAS 668467-91-2-Calbiochem, Sigma Aldrich-662086-10 MG) or GLUL inhibitor (L-Methionine sulfoximine, Sigma Aldrich-M5379-500 MG) upon reaching 50-60% confluency at day 3 in culture. For both UCH-L1inhibitor or GLUL inhibitor treatment, the working concentrations were used at 1 μM, 5 μM, and 25 μM. Treatment was maintained in culture for a total of 7 days and growth inhibition assessment was performed using AlamarBlueTM Cell Viability Reagent (Invitrogen-DAL1025) at a ratio of 1:10 for 4 hours according to the manufacturer's protocol. Plots and IC50 concentrations were produced in Prism GraphPad (version 9.2.0) by plotting the percent growth inhibition on the y-axis and the Log (concentration) on the x-axis. The corresponding IC50 was extracted from the nonlinear regression curve fitting analysis using Prism GraphPad. Cells treated with only a growth medium without any drugs were used as negative controls.

[6] = system: normal kidney HK-2 cell line; assay: as above; format: cell-based; details: HK-2 normal kidney control; 1, 5, 25 μM; treatment 7 days
Method: as §3

[7] = system: Akt signaling pathway in 786-O cells; assay: Western blot analysis of Akt signaling; format: cell-based; details: FIG. 18L
Method: as §2

skrc42.EV = details: FIG. 21G
Method: as §3

Structure (SMILES): CC(C)n1nc(-c2ccc3oc(N)nc3c2)c2c(N)ncnc21 [TAK-228]
- response among the five kinase inhibitors (phosphorylation of downstream targeted substrates) [1]: showed better responses
- phosphorylation of signaling-related downstream substrates [1]: reduced phosphorylation of the mTOR complex component, AKT1S1, and its downstream phospho-substrate target, EIF4EBP1

Structure (SMILES): CO[C@H]1C[C@@H]2CC[C@@H](C)[C@@](O)(O2)C(=O)C(=O)N2CCCC[C@H]2C(=O)O[C@H]([C@H](C)C[C@@H]2CC[C@@H](OCCO)[C@H](OC)C2)CC(=O)[C@H](C)/C=C(\C)[C@@H](O)[C@@H](OC)C(=O)[C@H](C)C[C@H](C)/C=C/C=C/C=C/1C [everolimus]
- therapeutic value / response in metastatic RCC (metastatic RCC): relatively poor response
- phosphorylation of signaling-related downstream substrates [1]: minimal impact

- IC50 ([2]; FIG. 23D middle): 650 nM
- IC50 ([3]; neuroblastoma cell line NB1): 1600 nM
Structure (SMILES): CC(=O)ON=C1C(=O)N(Cc2cc(Cl)ccc2Cl)c2ccc(Cl)cc21 [CAS 668467-91-2]
- effect on cell viability ([2]; listed as UCHL1 inhibitor): dramatic effects; also recorded: dramatic decrease in cell viability
- effect on cell viability ([3]; NB-1, FIG. 23D right): dramatic effects
- cell morphology (786-O renal cancer cells [4]): altered morphology being elongated and stressed
- inhibition of cell viability (786-O renal cancer cells [5]): dose-dependent inhibition of cell viability
- inhibition of cell viability (ccRCC cell line Caki-1): dose-dependent inhibition of cell viability
- sensitivity of cell viability to treatment [6]: resistant to the treatment
- activation of the Akt signaling pathway [7]: suppressed activation of the Akt signaling pathway in a dose-dependent manner

Structure (SMILES): COc1cc2ncnc(Nc3ccc(F)c(Cl)c3)c2cc1OCCCN1CCOCC1 [gefitinib]
- phosphorylation of signaling-related downstream substrates [1]: minimal impact

Structure (SMILES): CS(=N)(=O)CC[C@H](N)C(=O)O (stereo partly drawn) [L-Methionine sulfoximine]
- response of cell viability to anti-GLUL treatment (skrc42.EV): responded to the anti-GLUL treatment
- sensitivity of cell viability to treatment [6]: not sensitive to the treatment

Structure (SMILES): C=CCn1c(=O)c2cnc(Nc3ccc(N4CCN(C)CC4)cc3)nc2n1-c1cccc(C(C)(C)O)n1 [AZD-1775]
- response among the five kinase inhibitors (phosphorylation of downstream targeted substrates) [1]: showed better responses
- phosphorylation of signaling-related downstream substrates [1]: reduced CDK1 phosphorylation levels in all five cell lines

Structure (SMILES): C#CCN(C)Cc1ccccc1 [pargyline]
- effect on cell viability [2]: no effect on cell viability; also recorded: did not affect
